The test system of one assay is C57BL/6 mice. Description: Thermal sensitivity (Hargreaves radiant heat) after intraplantar injection, mice without capsaicin. It counts as in vivo, mouse. The procedure:
Experiments were performed on 6- to 12-week-old male C57BL/6 mice (The Jackson Laboratory, Bar Harbor, ME) housed in the AAALAC-accredited facility at the University of Texas Medical Branch. Mice were group-housed with up to 5 mice per cage on a 12-to-12-hour light–dark cycle and had access to water and food ad libitum. All protocols were approved by the Institutional Animal Care and Use Committee (IACUC) at the University of Texas Medical Branch and in accordance with the National Institutes of Health (NIH) guidelines.
PW164 and ZL192 were dissolved in DMSO and saline in a ratio of 1:10. 0.1% capsaicin (10% ethanol, 10% Tween-20 in saline; Sigma-Aldrich). All the compounds were injected at the center of the hind paw. The control group received a DMSO-saline mixture. […]
AAV2 viral particles packaged by the University of North Carolina Gene Therapy Core Facility (viral titer ranging […]
Before intrathecal injections in the lumbar region, mice were maintained in an anesthetizing box with 2% isoflurane to induce unconsciousness. Six microliters of viral vector were gently injected into the CSF through a 30-gauge needle with a Hamilton syringe in the lumbar area between vertebrae L4 and L5 by gently gripping the iliac crest of the mouse and inserting the needle with an angle of 45°. The correct procedure was confirmed by the mouse’s tail reflexiv e flick. […]
Assessment of thermal sensitivity
Plantar tests for thermal sensitivity were performed using the Hargreaves apparatus (Ugo Basile, Italy) in mice that were either naïve or received i.p. injection of capsaicin or test compound. A thermal stimulus, generated by an infrared-focused light source, invisible to the rodent, was applied through a glass pane, to the plantar surface of the hind paw of the animal. The response to this stimulus was considered the withdrawal of the stimulated paw (lifting and licking). Light intensity was set up at 30% and the cut-off at the 20 s. The final value of thermal withdrawal latency, expressed in seconds, was the average value of three consecutive trials. […]

In the next assay the target is T1, FGF13 (Homo sapiens, UniProt Q92913).
T1 construct: Full-length FGF13-1b (aa 1-192) was subcloned into appropriate plasmids; made in house; host or cells: E. coli BL21 (DE3) pLys
T1 sequence (Q92913 1-192 isoform Q92913-2): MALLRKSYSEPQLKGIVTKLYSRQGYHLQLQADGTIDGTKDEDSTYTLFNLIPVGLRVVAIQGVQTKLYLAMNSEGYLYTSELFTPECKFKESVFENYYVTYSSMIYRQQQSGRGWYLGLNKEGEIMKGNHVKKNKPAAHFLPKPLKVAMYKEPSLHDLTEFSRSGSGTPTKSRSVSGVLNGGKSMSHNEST
Description: Surface plasmon resonance (SPR), compound binding to FGF13. The note with it: for Kd: SPR. The procedure: page 6: Split-luciferase Complementation Assay (LCA) Twenty-four hours post transfection, cells were trypsinized using TrypLE (Gibco; cat # 12604013), centrifuged […] plates (Greiner Bio -One; cat # 655073 ) at ~0.8 x 10^5 cells per well in 200 μl of medium. The cells were incubated for another 24 hours, and then the growth medium was replaced with 100 μl serum -free, phenol red -free DMEM/F-12 medium (Invitrogen). All compounds from the PW - and the ZL-series, including PW164 and […] medium and then cells were incubated for two hours. The bioluminescence reaction was initiated by injection of 100 μl of D -luciferin substrate (1.5 mg/ml dissolved in PBS) using a Synergy H4 multimode microplate reader (BioTek). Luminescence readings were initiated after 3 s of mild plate shaking and performed at 2 min intervals […] °C. Raw signal intensity was computed by averaging peak luminescence plus two adjacent time points. Normalized signal intensity was expressed as the percentage of mean signal intensity relative to per plate control […] Surface plasmon resonance (SPR) All SPR experiments were performed on a Biacore T100 (GE Healthcare). […] ([…]) , which was previously described (14) or purified FGF13 were immobilized on CM5 sensor chip using 10 mM sodium acetate buffer (pH 5.5) with Amine Coupling Kit (GE […] to the control channel of the chip. For each compound, stock solution (50 mM) was serially diluted from 300 to 1 […] Samples were injected over the chip for 60 s followed by […] page 7: […] The nonspecific responses (buffer alone) were extracted for injected compound or peptide from experimental sensograms before data analysis. Data was analyzed for kinetic properties using Biacore T100 Analysis software. Visually inspected sensograms/traces were used to calculate the equilibrium constant (KD): i. the maximal responses were plotted against the treated concentrations, and the steady state KD was calculated from the fitted saturation binding curve; ii. a kinetic analysis for all ligand/analyte interaction was obtained by using Langmuir 1:1 interaction fitting model (KD = koff/kon). RNA isolation from DRG Mouse surgical and experimental procedures employed were approved by the University of Texas Medical Branch Institutional Animal Care and Use Committee. Animals were sacrificed using carbon dioxide before confirmation of death, rather than cervical dislocation. Mouse lumbar dorsal root ganglia (L4 and L5) were dissected and collected in Buffer RLT Plus (RNeasy Plus Mini Kit, QIAGEN, cat. nos. 74136). RNA was isolated according to the protocol reported in the same kit. Quantitative reverse transcriptase PCR (qRT-PCR) RNA samples for real-time analysis were then quantified using a Nanodrop Spectrophotometer (Thermo Scientific). cDNA was generated from total RNA (1 μg) in a 20 μl reaction using the reagents of iScriptTM Reverse Transcription Supermix for RT-qPCR (Bio-Rad Laboratories, cat. 1708840). FGF13 gene expression was determined by qRT-PCR. qRT-PCR was performed in duplicate for each sample using 4 μl of cDNA in a total volume of 20 μl using the iTaq Universal SYBR Green Supermix (Bio-Rad, Hercules, CA, United States). All RT-PCR assays were run using the BioRad CFX384 Touch Real-Time PCR System (Bio-Rad, Hercules, CA, United States) with the following conditions: 95°[…]) repeated by 40 cycles and 4°C. […] The internal reference gene for SYBR Green assays was 18[NT] and 5'-CTC
A general note: In SPR one partner is held on a chip, and binding of the other changes the refractive index at the surface.

Consider two compounds from paper PMC12259270, “Sensory neuron–expressed FGF13 controls nociceptive signaling in diabetic neuropathy models” (The Journal of Clinical Investigation, 2025).

Residues, ends and D or L forms follow the SMILES beside them. *: point of attachment. Cbz = O=C(OCc1ccccc1)*; NHPh = c1ccc(N*)cc1; OtBu = CC(C)(C)O*

Regarding `COC(=O)[C@@H](NC(=O)[C@H](CCC(=O)OC(C)(C)C)NC(=O)[C@H](CC(C)C)NC(=O)[C@@H]1CCCN1C(=O)OCc1ccccc1)C(C)C` [PW164] (Cbz-PLE(OtBu)V-OMe), the “thermal hindpaw withdrawal thresholds (latency), normal sensitivity” value in the assay with C57BL/6 mice (WT mice, i.pl., radiant heat test) is on record as “Neither did PW164 affect thermal hindpaw withdrawal thresholds”. At FGF13, the Kd was 21 ± 3 µM.
`CC(=O)N[C@@H](Cc1ccccc1)C(=O)N[C@@H](CC(C)C)C(=O)N1CCC[C@H]1C(=O)N[C@@H](CCCCN)C(=O)Nc1ccccc1` [ZL192] (Ac-FLPK-NHPh): the “thermal hypersensitivity in AAV2-shFGF13 mice” value with C57BL/6 mice (ZL192 0.18 mg/mL, i.pl.) is reported as “absent”. For the same compound, in the assay with C57BL/6 mice (ZL192 0.18 mg/mL, i.pl.), the “thermal sensitivity in AAV2-shCTRL mice” value is “caused mechanical and thermal hypersensitivity”. Besides, the thermal sensitivity result in the assay on C57BL/6 mice (naive WT mice, ZL192 i.pl. 0.06 or 0.18 mg/mL) is on record as “also seen”. Besides, the Kd on FGF13 was 4 µM. The “Figure 1C Right panel, Mean response versus concentration” value at FGF13 (concentration 3.12e-6) worked out at 10.5172; on FGF13 (concentration 6.25e-6) it was 11.7391; on FGF13 (concentration 1.25e-5), 12.5757; on FGF13 (concentration 2.5e-5), 14.2936; at FGF13 (concentration 5e-5), 15.3045; on FGF13 (concentration 7.5e-5) it was 16.2485. Also, the “Figure 1C Right panel, Mean response versus concentration” value on FGF13 (concentration 0.0001) was found to be 18.1479; at FGF13 (concentration 0.00015), 20.366; on FGF13 (concentration 0.0002), 22.3345; on FGF13 (concentration 0.0003), 22.6291; on FGF13 (concentration 7.80E-07), 7.018.

One may read the Kd as the free concentration of one partner at which half of the binding sites on the other are occupied at equilibrium, for simple one-to-one binding.
